Several values for one entry are separate records, joined by “and”; a condition that tells them apart may be missing. Equal entries are not always repeated.
Tests used:
Assay type in all cases: biochemical
FIH = target: T1, FIH (Homo sapiens, UniProt Q9NWT6); assay: Rapid quench-flow, FIH pre-steady-state product and succinate formation; details: for Rapid quench-flow kproduct / Rapid quench-flow ksuccinate: 0.5 mM apo-FIH, 0.4 mM Fe(II), 5 mM 2OG, 1 mM substrate, 50 mM HEPES pH 7.5, O2-saturated buffer 1:1, 5 °C, quenched with 1% CF3CO2H; for Rapid quench-flow kproduct: hydroxylation by MALDI-TOF-MS, 1–3 separate experiments; for Rapid quench-flow ksuccinate: succinate by LC-MS
T1 construct: Full-length recombinant FIH, two- and three-consensus ankyrin repeats (2CA and 3CA) were produced as described; His6 (cleaved yes); made in house; host or cells: Escherichia coli BL21(DE3)
Method: Rapid quench-flow experiments were performed using the same conditions and preparation of the assay mixture as used in stopped-flow experiments. Rapid quench-flow equipment (TgK Scientific Ltd.) in an anaerobic glove box was used for the experiments. Samples were quenched with 1% CF3CO2H and analyzed using MALDI-TOF-MS (peptide hydroxylation) as described above or liquid chromatography-mass spectrometry (LC-MS, for succinate production). For LC-MS, chromatographic separation was performed at 50 °C using a Waters ACQUITY BEH Amide 1.7-μm, 2.1 × 100-mm column on a Waters ACQUITY^TM ultraperformance liquid chromatography system (Waters Corp., Milford, MA). The following eluents were used: mobile phase A: 10% H2O, 90% acetonitrile (v/v), 10 mM ammonium formate; mobile phase B: 50% H2O, 50% acetonitrile (v/v), 10 mM ammonium formate. The elution gradient was 0–7.0 min linear from 10 to 30% B, and 7.0–9.0 min at 10% B for re-equilibration of the column. A constant flow rate of 0.4 ml/min was used. Analytes were detected in negative ionization mode using single reaction monitoring on a Quattro triple quadrupole mass spectrometer (Waters) with a cone voltage of 15 V and a capillary voltage of 3.0 kV. The desolvation temperature was set to 250 °C, and the source temperature was set to 120 °C.
FIGURE 9. Rapid quench-flow experiments showing FIH-catalyzed hydroxylation of HIF-1/2α CAD and ARD substrates. Reaction mixtures containing anaerobic 0.5 mM apo-FIH, 0.4 mM Fe(II), 5 mM 2OG, 1 mM peptide in HEPES 50 mM (pH 7.5) were rapidly mixed with O2-saturated buffer at 5 °C in a 1:1 ratio and then quenched with 1% CF3CO2H at defined time points. The data were fitted with the function, y = a·(1 − exp(−bx)) + c. Hydroxylation levels were assessed by MALDI-TOF-MS. A, hydroxylation of HIF-1α CAD, 1CA, and tankyrase-1 peptide substrates (19- and 20-mers); B, hydroxylation of HIF-1α, HIF-2α, and tankyrase-1 35-mer peptide substrates; C, hydroxylation of 1CA, 2CA, and 3CA. Data plotted were cumulatively acquired over the course of 1–3 separate experiments.

PHD2 [1] = target: T2, PHD2 (Homo sapiens, UniProt Q9GZT9); assay: Stopped-flow UV-visible spectroscopy, PHD2·Fe(II)·2OG·substrate + O2; details: anaerobic 0.8 mM PHD2, 1 mM peptide, 5 mM 2OG, 50 mM HEPES pH 7.5, mixed 1:1 with O2-saturated buffer at 5 °C, double exponential fit; for Stopped-flow, 520 nm (PHD2) kfall phase: traces average of triplicate
T2 construct: The catalytic domain of PHD2 (residues 181–426) was purified as described; made in house
Method: Stopped-flow UV-visible spectroscopy experiments were performed as described previously ([32], [42]). […] The reaction was observed over 1000 s using a photodiode array detector, and kinetic traces were analyzed using Origin version 8.51 software. Data were fitted with a double exponential function (y = A1 × exp(−kriset) + A2 × exp(−kfallt) + y0). The A1, A2, and y0 parameters were restricted with upper limits to match the observed amplitude/offset changes.
Previously reported pre-steady-state kinetic studies on PHD2 focused on its reaction with CODD HIF-1α 19-mer peptide ([38], [42]); there is no reported information on the rates of PHD2 reaction with O2 in the presence of NODD HIF-1α or HIF-2α substrates. To ascertain whether a slow reaction with O2 under pre-steady-state conditions is common to PHD2-catalyzed hydroxylation of both CODD and NODD, we investigated the reaction of PHD2 with NODD substrates in comparison with CODD for both HIF-1α and HIF-2α. Pre-steady-state reactions of PHD2 were initiated by rapid mixing of anaerobic PHD2·Fe(II)·2OG·HIF-α complexes with O2-saturated buffer at 5 °C. Reactions were initially observed using a photodiode array detector, and difference spectra (in comparison with the reaction with O2-free buffer) were subsequently analyzed.
FIGURE 5. Pre-steady-state kinetics of PHD2-catalyzed HIF-1/2α hydroxylation. […] B, stopped-flow kinetic traces at 520 nm showing absorbance changes in control experiments: Fe(II) only, mix of Fe(II) and 2OG, reaction of PHD2·Fe(II)·2OG complex with O2 in the absence of CODD; reaction of PHD2·Fe(II)·N-oxalylglycine (NOG)·CODD complex with O2. N-Oxalylglycine is an inhibitor of 2OG oxygenases. […] The kinetic traces represent the average of triplicate assays. E, HIF-1/2α peptide hydroxylation, as determined by MALDI-TOF-MS. Reactions were quenched with 1% CF3CO2H at defined time points.

PHD2 [2] = target: T2, PHD2; assay: O2 dependence of PHD2-catalyzed hydroxylation (sealed vials, N2/O2 mixes); details: PHD2 with the named 19-mer substrate; 4 μM PHD2, 50 μM Fe(II), 4 mM L-ascorbate, 50 mM HEPES pH 7.5, 37 °C, O2 levels set by mass flow controllers; triplicate assays; read-out: Km^app(O2)
Method: The O2 dependence of FIH-catalyzed reactions was determined by conducting enzymatic assays in an “In vivo 500 Hypoxia Workstation” (Ruskinn) using buffers pre-equilibrated under different pO2 values for 24 h. The O2 dependence of PHD2-catalyzed reactions was determined by conducting enzymatic assays in sealed glass vials with variable N2/O2 contents ([42]). Reactions were stopped by spotting samples onto a matrix-assisted laser desorption/ionization-time of flight mass spectrometry (MALDI-TOF-MS) target plate and immediately mixing with α-cyano-4-hydroxycinnamic acid matrix. Hydroxylation levels were assessed by MALDI-TOF-MS as described ([46]).
FIGURE 4. O2 dependence of FIH- and PHD2-catalyzed hydroxylation of HIF-1/2α. A, O2 dependence of PHD2-catalyzed hydroxylation of HIF-1/2α CODD/NODD 19-mer peptides. 4 μM PHD2, peptide (varied), 50 μM Fe(II), 2OG (varied), 4 mM L-ascorbate in HEPES 50 mM (pH 7.5) were incubated at 37 °C. The different O2 levels were maintained using mass flow controllers ([42]), and the hydroxylation levels were analyzed by MALDI-TOF-MS. B, O2 dependence of FIH-catalyzed hydroxylation of CAD HIF-1/2α 35-mer peptides. Conditions were as follows. 5 μM FIH, 500 μM peptide, 50 μM Fe(II), 1 mM 2OG, 1 mM L-ascorbate in HEPES 50 mM (pH 7.5) were incubated at 37 °C in a hypoxia work station under different pO2. […] Error bars, S.D. of triplicate assays.

T1 sequence (Q9NWT6 whole entry): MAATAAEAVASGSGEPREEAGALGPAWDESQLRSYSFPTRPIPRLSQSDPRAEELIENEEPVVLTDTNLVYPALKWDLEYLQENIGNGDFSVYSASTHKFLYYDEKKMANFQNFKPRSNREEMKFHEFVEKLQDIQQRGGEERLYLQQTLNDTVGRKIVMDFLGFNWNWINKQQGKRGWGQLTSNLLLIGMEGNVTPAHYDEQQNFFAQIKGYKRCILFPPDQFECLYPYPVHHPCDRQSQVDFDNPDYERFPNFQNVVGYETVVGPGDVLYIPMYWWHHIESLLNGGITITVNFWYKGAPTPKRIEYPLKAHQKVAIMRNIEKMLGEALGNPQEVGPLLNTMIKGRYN
T2 sequence (Q9GZT9 181-426): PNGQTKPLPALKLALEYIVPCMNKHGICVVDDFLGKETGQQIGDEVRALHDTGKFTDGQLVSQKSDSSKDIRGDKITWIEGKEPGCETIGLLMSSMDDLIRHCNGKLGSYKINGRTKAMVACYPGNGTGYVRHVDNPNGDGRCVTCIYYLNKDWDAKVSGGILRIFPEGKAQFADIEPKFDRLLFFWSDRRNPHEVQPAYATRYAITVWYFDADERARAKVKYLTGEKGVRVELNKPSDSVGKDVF

Sequence | Rapid quench-flow kproduct (FIH) | Rapid quench-flow ksuccinate (FIH) | other results
AAGYNNLEVAEYLLEHGADVNAQDKGGLIPLHNAA [tnkrs-1_35-mer, 35-mer fragment of tankyrase-1, ARD substrate of FIH] | 11 ± 3 s⁻¹ | 10 ± 3 s⁻¹ | Rapid quench-flow kproduct (FIH; listed as tnkrs-1_35mer): 11 s⁻¹; product formation rate, fold faster than for the 20-mer (FIH; rapid quench-flow, 5 °C): ~7 fold
DESGLPQLTSYDCEVNAPIQGSRNLLQGEELLRAL [HIF-1α CAD35-mer] | 0.33 s⁻¹ | 0.3 ± 0.1 s⁻¹ | Rapid quench-flow kproduct (FIH; listed as CAD HIF-1α35-mer): 0.33 ± 0.07 s⁻¹
EELAQLAPTPGDAIISLDF [HIF-2α NODD, 19-mer fragment (398–416) of the HIF-2α N-terminal oxygen-dependent degradation domain, PHD2 substrate] | – | – | Stopped-flow, 520 nm (PHD2) krise phase (PHD2 [1]): 0.003 ± 0.001 s⁻¹; Stopped-flow, 520 nm (PHD2) kfall phase (PHD2 [1]; listed as NODD HIF-2α): 0.195 ± 0.003 s⁻¹ and 0.195 ± 0.009 s⁻¹; Km (PHD2 [2]): 410 ± 80 µM
ELDLETLAPYIPMDGEDFQ [HIF-2α CODD, 19-mer fragment (523–541) of the HIF-2α C-terminal oxygen-dependent degradation domain, PHD2 substrate] | – | – | Stopped-flow, 520 nm (PHD2) krise phase (PHD2 [1]): 0.027 ± 0.001 s⁻¹; Stopped-flow, 520 nm (PHD2) kfall phase (PHD2 [1]): 0.450 ± 0.010 s⁻¹; Km (PHD2 [2]): > 450 µM
ESYLLPELTRYDCEVNVPVLGSSTLLQGGDLLRAL [HIF-2α CAD35-mer] | 0.12 ± 0.01 s⁻¹ | 0.11 ± 0.03 s⁻¹ | –
GSHMGSDLGKKLLEAARAGQDDEVRILMANGADVAAKDKNGSTPLHLAARNGHLEVVKLLLEAGADVNAQDKFGKTAFDISIDNGNEDLAEILQ [3CA, recombinant three-consensus ankyrin repeat protein produced in Escherichia coli] | 0.051 s⁻¹ and 0.051 ± 0.001 s⁻¹ | – | –
HLEVVKLLLEAGADVNAQDK [1CA20-mer] | 1.3 ± 0.2 s⁻¹ | 0.8 ± 0.3 s⁻¹ | product accumulation rate, fold faster than the reaction with HIF 35-mer substrates (FIH; rapid quench-flow, 5 °C): ~10 fold
SDKNGSTPLHLAARNGHLEVVKLLLEHGADVNAQDKWGKTAFDISIDNGNEDLAEILQ [2CA, recombinant two-consensus ankyrin repeat protein produced in Escherichia coli] | 0.5 ± 0.1 s⁻¹ | – | –

— PMC4528135, “Kinetic Investigations of the Role of Factor Inhibiting Hypoxia-inducible Factor (FIH) as an Oxygen Sensor” (The Journal of Biological Chemistry, 2015)
